Values of other authors as cited in US8445278B2, “Process for producing decellularized biological tissues” (Medtronic, Inc., priority 2005, dated 2013).

System: fresh rat hepatocytes

## CCCCCCCCCCCCOS(=O)(=O)[O-].[Na+] [SDS, sodium dodecyl sulphate]
  IC50: 49 µM
  concentration at which SDS is toxic: ≥ 10 µM
